This test relates to KRAS G12V dependent lung adenocarcinoma cell line, NCI-H441. Nature of the test: Cellular pERK (Thr202/Tyr204) FRET/HTRF assay. The conditions noted are these: Homo sapiens, NCI-H441, cellular pERK (Thr202/Tyr204) HTRF, NCI-H441 cells. The class given is cell-based. Summed up: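 Using a mix-and-read HTRF kit, phospho-ERK (Thr202/Tyr204) was detected in NCI-H441 lysates following 1 hr compound incubation at 37 °C, 5% CO2. Cells had been seeded overnight beforehand, and IC50 was derived by curve fitting.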
For orientation: Time-resolved FRET reads energy transfer from a long-lived donor to a nearby acceptor.

Molecules are shown by their SMILES.

In general, IC50 refers to the concentration that gives 50% inhibition. As for `[2H]C([2H])([2H])Oc1c(F)c(F)c(F)c2cc(N)cc(-c3ncc4c(N5CCOC[C@H]6[C@H](F)[C@H]65)nc(OC[C@@]56CCCN5C/C(=C/F)C6)nc4c3F)c12` [Example 132, 6,7,8-trifluoro-4-(8-fluoro-4-((1S,7S,8S)-8-fluoro-5-oxa-2-azabicyclo[5.1.0]octan-2-yl)-2-(((S,E)-2-(fluoromethylene)tetrahydro-1H-pyrrolizin-7a(5H)-yl)methoxy)pyrido[4,3-d]pyrimidin-7-yl)-5-(methoxy-d3)naphthalen-2-amine], the IC50 is below 0.05 µM. To `[2H]C([2H])([2H])Oc1c(F)c(F)c(F)c2cc(N)cc(-c3ncc4c(N5CCOC[C@H]6[C@H](F)[C@H]65)nc(OC[C@@]56CCCN5C/C(=C\F)C6)nc4c3F)c12` [Example 133, 6,7,8-trifluoro-4-(8-fluoro-4-((1S,7S,8S)-8-fluoro-5-oxa-2-azabicyclo[5.1.0]octan-2-yl)-2-(((S,Z)-2-(fluoromethylene)tetrahydro-1H-pyrrolizin-7a(5H)-yl)methoxy)pyrido[4,3-d]pyrimidin-7-yl)-5-(methoxy-d3)naphthalen-2-amine] belongs below 0.05 µM; to `C#Cc1c(F)ccc2cc(N)cc(-c3ncc4c(N5CCOC[C@H]6[C@H](F)[C@H]65)nc(OC[C@@]56CCCN5CC(=C(F)F)C6)nc4c3F)c12` [Example 134, 4-(2-(((S)-2-(difluoromethylene)tetrahydro-1H-pyrrolizin-7a(5H)-yl)methoxy)-8-fluoro-4-((1S,7S,8S)-8-fluoro-5-oxa-2-azabicyclo[5.1.0]octan-2-yl)pyrido[4,3-d]pyrimidin-7-yl)-5-ethynyl-6-fluoronaphthalen-2-amine], below 0.05 µM. For `[2H]C([2H])(F)Oc1c(F)c(F)cc2cncc(-c3ncc4c(N5CCOC[C@H]6[C@H](F)[C@H]65)nc(OC([2H])([2H])[C@@]56CCCN5C[C@H](F)C6)nc4c3F)c12` [Example 135, (1S,7S,8S)-2-(7-(6,7-difluoro-5-(fluoromethoxy-d2)isoquinolin-4-yl)-8-fluoro-2-(((2R,7aS)-2-fluorotetrahydro-1H-pyrrolizin-7a(5H)-yl)methoxy-d2)pyrido[4,3-d]pyrimidin-4-yl)-8-fluoro-5-oxa-2-azabicyclo[5.1.0]octane] the value was below 0.05 µM; for `[2H]C([2H])([2H])Oc1c(F)c(F)cc2cncc(-c3ncc4c(N5CCOC[C@H]6[C@H](F)[C@H]65)nc(OC([2H])([2H])[C@@]56CCCN5C[C@H](F)C6)nc4c3F)c12` [Example 136, (1S,7S,8S)-2-(7-(6,7-difluoro-5-(methoxy-d3)isoquinolin-4-yl)-8-fluoro-2-(((2R,7aS)-2-fluorotetrahydro-1H-pyrrolizin-7a(5H)-yl)methoxy-d2)pyrido[4,3-d]pyrimidin-4-yl)-8-fluoro-5-oxa-2-azabicyclo[5.1.0]octane], 0.05 to 0.5 µM. Take `[2H]C([2H])(F)Oc1c(F)cc(F)c2cc(N)cc(-c3ncc4c(N5CCOC[C@H]6[C@H](F)[C@H]65)nc(OC([2H])([2H])[C@@]56CCCN5C[C@H](F)C6)nc4c3F)c12` [Example 139, 6,8-difluoro-4-(8-fluoro-4-((1S,7S,8S)-8-fluoro-5-oxa-2-azabicyclo[5.1.0]octan-2-yl)-2-(((2R,7aS)-2-fluorotetrahydro-1H-pyrrolizin-7a(5H)-yl)methoxy-d2)pyrido[4,3-d]pyrimidin-7-yl)-5-(fluoromethoxy-d2)naphthalen-2-amine]: the IC50 is below 0.05 µM.

Consider `[2H]C([2H])([2H])Oc1c(F)cc(F)c2cccc(-c3ncc4c(N5CCCC[C@H]6[C@H](F)[C@H]65)nc(OC([2H])([2H])[C@@]56CCCN5C[C@H](F)C6)nc4c3F)c12` [Example 140, 7-(5,7-difluoro-8-(methoxy-d3)naphthalen-1-yl)-8-fluoro-4-((1S,7R,8S)-8-fluoro-2-azabicyclo[5.1.0]octan-2-yl)-2-(((2R,7aS)-2-fluorotetrahydro-1H-pyrrolizin-7a(5H)-yl)methoxy-d2)pyrido[4,3-d]pyrimidine], for which the half-inhibitory concentration (IC50) is 0.05 to 0.5 µM. `[2H]C([2H])([2H])Oc1c(F)cc(F)c2cc(N)cc(-c3ncc4c(N5CCCC[C@H]6[C@H](F)[C@H]65)nc(OC([2H])([2H])[C@@]56CCCN5C[C@H](F)C6)nc4c3F)c12` [Example 141, 6,8-difluoro-4-(8-fluoro-4-((1S,7R,8S)-8-fluoro-2-azabicyclo[5.1.0]octan-2-yl)-2-(((2R,7aS)-2-fluorotetrahydro-1H-pyrrolizin-7a(5H)-yl)methoxy-d2)pyrido[4,3-d]pyrimidin-7-yl)-5-(methoxy-d3)naphthalen-2-amine] had an IC50 below 0.05 µM. The molecule `[2H]C([2H])([2H])Oc1c(F)c(F)c(F)c2cc(N)cc(-c3ncc4c(N5CCOC[C@H]6[C@H](F)[C@H]65)nc(OC[C@@]56CCCN5CC(=C(F)F)C6)nc4c3F)c12` [Example 142, 4-(2-(((S)-2-(difluoromethylene)tetrahydro-1H-pyrrolizin-7a(5H)-yl)methoxy)-8-fluoro-4-((1S,7S,8S)-8-fluoro-5-oxa-2-azabicyclo[5.1.0]octan-2-yl)pyrido[4,3-d]pyrimidin-7-yl)-6,7,8-trifluoro-5-(methoxy-d3)naphthalen-2-amine] yielded an IC50 below 0.05 µM.

As for `C#Cc1c(F)ccc2cccc(-c3ncc4c(N5CCOC[C@H]6[C@H](F)[C@H]65)nc(OC[C@@]56CCCN5CC(=C)C6)nc4c3F)c12` [Example 143, (1S,7S,8S)-2-(7-(8-ethynyl-7-fluoronaphthalen-1-yl)-8-fluoro-2-(((S)-2-methylenetetrahydro-1H-pyrrolizin-7a(5H)-yl)methoxy)pyrido[4,3-d]pyrimidin-4-yl)-8-fluoro-5-oxa-2-azabicyclo[5.1.0]octane], the IC50 was below 0.05 µM. As to `[2H]C([2H])(F)Oc1c(F)c(F)cc2cc(N)cc(-c3ncc4c(N5CCOC[C@H]6[C@H](F)[C@H]65)nc(OC[C@@]56CCCN5CC(=C)C6)nc4c3F)c12` [Example 144, 6,7-difluoro-4-(8-fluoro-4-((1S,7S,8S)-8-fluoro-5-oxa-2-azabicyclo[5.1.0]octan-2-yl)-2-(((S)-2-methylenetetrahydro-1H-pyrrolizin-7a(5H)-yl)methoxy)pyrido[4,3-d]pyrimidin-7-yl)-5-(fluoromethoxy-d2)naphthalen-2-amine], the IC50 is below 0.05 µM. For `[2H]C([2H])(F)Oc1c(F)ccc2cccc(-c3ncc4c(N5CCOC[C@H]6[C@H](F)[C@H]65)nc(OC[C@@]56CCCN5CC(=C)C6)nc4c3F)c12` [Example 145, (1S,7S,8S)-8-fluoro-2-(8-fluoro-7-(7-fluoro-8-(fluoromethoxy-d2)naphthalen-1-yl)-2-(((S)-2-methylenetetrahydro-1H-pyrrolizin-7a(5H)-yl)methoxy)pyrido[4,3-d]pyrimidin-4-yl)-5-oxa-2-azabicyclo[5.1.0]octane] the value was below 0.05 µM; for `[2H]C([2H])(F)Oc1c(F)ccc2cccc(-c3ncc4c(N5CCOC[C@H]6[C@H](F)[C@H]65)nc(OC[C@@]56CCCN5CC(=C(F)F)C6)nc4c3F)c12` [Example 146, (1S,7S,8S)-2-(2-(((S)-2-(difluoromethylene)tetrahydro-1H-pyrrolizin-7a(5H)-yl)methoxy)-8-fluoro-7-(7-fluoro-8-(fluoromethoxy-d2)naphthalen-1-yl)pyrido[4,3-d]pyrimidin-4-yl)-8-fluoro-5-oxa-2-azabicyclo[5.1.0]octane], below 0.05 µM. For `[2H]C([2H])(Oc1nc(N2CCC=C[C@H]3[C@H](F)[C@H]32)c2cnc(-c3cccc4ccc(F)c(C#C)c34)c(F)c2n1)[C@@]12CCCN1C[C@H](F)C2` [Example 147, 7-(8-Ethynyl-7-fluoronaphthalen-1-yl)-8-fluoro-4-((1S,7R,8S)-8-fluoro-2-azabicyclo[5.1.0]oct-5-en-2-yl)-2-(((2R,7aS)-2-fluorotetrahydro-1H-pyrrolizin-7a(5H)-yl)methoxy-d2)pyrido[4,3-d]pyrimidine], the IC50 is below 0.05 µM.

Regarding `[2H]C([2H])([2H])Oc1c(F)c(F)c(F)c2cc(N)cc(-c3ncc4c(N5CCC=C[C@H]6[C@H](F)[C@H]65)nc(OC([2H])([2H])[C@@]56CCCN5C[C@H](F)C6)nc4c3F)c12` [Example 148, 6,7,8-Trifluoro-4-(8-fluoro-4-((1S,7R,8S)-8-fluoro-2-azabicyclo[5.1.0]oct-5-en-2-yl)-2-(((2R,7aS)-2-fluorotetrahydro-1H-pyrrolizin-7a(5H)-yl)methoxy-d2)pyrido[4,3-d]pyrimidin-7-yl)-5-(methoxy-d3)naphthalen-2-amine], the 50% inhibitory concentration (IC50) fell in the range of 0.05 to 0.5 µM. Regarding `[2H]C([2H])([2H])Oc1c(F)cc(F)c2cc(N)cc(-c3ncc4c(N5CCC=C[C@H]6[C@H](F)[C@H]65)nc(OC([2H])([2H])[C@@]56CCCN5C[C@H](F)C6)nc4c3F)c12` [Example 149, 6,8-difluoro-4-(8-fluoro-4-((1S,7R,8S)-8-fluoro-2-azabicyclo[5.1.0]oct-5-en-2-yl)-2-(((2R,7aS)-2-fluorotetrahydro-1H-pyrrolizin-7a(5H)-yl)methoxy-d2)pyrido[4,3-d]pyrimidin-7-yl)-5-(methoxy-d3)naphthalen-2-amine], the IC50 is below 0.05 µM. Take `[2H]C([2H])(Oc1nc(N2CCC=C[C@H]3[C@H](F)[C@H]32)c2cnc(-c3cc(N)cc4ccc(F)c(C#C)c34)c(F)c2n1)[C@@]12CCCN1C[C@H](F)C2` [Example 150, 5-Ethynyl-6-fluoro-4-(8-fluoro-4-((1S,7R,8S)-8-fluoro-2-azabicyclo[5.1.0]oct-5-en-2-yl)-2-(((2R,7aS)-2-fluorotetrahydro-1H-pyrrolizin-7a(5H)-yl)methoxy-d2)pyrido[4,3-d]pyrimidin-7-yl)naphthalen-2-amine]: the IC50 is below 0.05 µM.

The record behind these values is patent US20250282799A1, “SUBSTITUTED PYRIDO[4,3-d]PYRIMIDINES AS KRAS MODULATORS” (Alterome Therapeutics, Inc., priority 2023, published 2025).
